According to ChEMBL document CHEMBL4715748, “Synthesis and biological investigation of new equatorial (β) stereoisomers of 3-aminotropane arylamides with atypical antipsychotic profile” (Bioorg Med Chem, 2016):

How the values were obtained:
Mus musculus [1] = assay: Inhibition of 8-OH-DPAT-induced hypothermia in Swiss albino mouse assessed as change in rectal body temperature at 0.3 mg/kg, sc pretreated with compound for 45 mins followed by 8-OH-DPAT challenge and measured after 15 min by thermometer (reference value: -1.8 degreeC); format: functional, organism-based; settings: time 60.0 min
Mus musculus [2] = assay: Inhibition of 8-OH-DPAT-induced hypothermia in Swiss albino mouse assessed as change in rectal body temperature at 0.3 mg/kg, sc pretreated with compound for 45 mins followed by 8-OH-DPAT challenge and measured after 30 min by thermometer (reference value: -1.7 degreeC); format: functional, organism-based; settings: time 75.0 min
Mus musculus [3] = assay: Inhibition of 8-OH-DPAT-induced hypothermia in Swiss albino mouse assessed as change in rectal body temperature at 0.3 mg/kg, sc pretreated with compound for 45 mins followed by 8-OH-DPAT challenge and measured after 45 min by thermometer (reference value: -1.3 degreeC); format: functional, organism-based; settings: time 90.0 min
Mus musculus [4] = assay: Inhibition of 8-OH-DPAT-induced hypothermia in Swiss albino mouse assessed as change in rectal body temperature at 0.3 mg/kg, sc pretreated with compound for 45 mins followed by 8-OH-DPAT challenge and measured after 60 min by thermometer (reference value: -1.3 degreeC); format: functional, organism-based; settings: time 105.0 min
[5] = Effect on 8-OH-DPAT-induced lower lip retraction in Wistar rat at 0.1 mg/kg, sc pretreated with compound for 45 mins followed by 8-OH-DPAT challenge and measured after 15 mins (reference value: 2.7 to 2.8); format: functional; settings: time 60 min, 1 h
[6] = Effect on 8-OH-DPAT-induced lower lip retraction in Wistar rat at 0.2 mg/kg, sc pretreated with compound for 15 mins followed by 8-OH-DPAT challenge and measured after 15 mins (reference value: 2.7 to 2.8); settings: time 30 min, 0.5 h

For `COc1ccccc1N1CCN(CCN(C(=O)C2CCCCC2)c2ccccn2)CC1` [WAY-100,635], the deltaT (Mus musculus [1]) was -0.6 °C, the deltaT (Mus musculus [2]) was -0.8 °C and the deltaT (Mus musculus [3]) was -0.5 °C. For the same molecule, the deltaT (Mus musculus [4]) was -0.2 °C, the Activity [5] was 1.4 and the Activity [6] was 1.3.
